Test results from ChEMBL document CHEMBL1201862, “PubChem BioAssay data set” (2004).
Calls of active or inactive are those of the source.

What was measured:
[1] = target: Mitogen-activated protein kinase 10 (Homo sapiens, UniProt P53779); experiment: Dose response biochemical screening assay for inhibitors of c-Jun N-Terminal Kinase 3 (JNK3). [Related pubchem assays: 746 ]
cells = conditions: HEK293
[2] = toxicity to A549 lung cells – cell-based, plate reader, dry powder, set 6, cytotoxicity control, dose response (AID 743312); type: functional
[3] = toxicity to HepG2 liver cells – cell-based, plate reader, dry powder, set 6, cytotoxicity control, dose response (AID 743311); type: functional
Paired box protein Pax-8 = Paired box protein Pax-8 (Homo sapiens, UniProt Q06710); experiment: PAX8 transcriptional activity inhibition in RMG-I – RMG-I cells, luciferase, cherry-pick, dose response (AID 687027); type: functional, cell-based;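 also: luciferase reporter driven by Pax8 target thyroperoxidase promoter measured by SteadyGlo luminescence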
[4] = OVCAR-3 cell viability loss – plate reader, dry powder samples, PAX8 inhibitor project, dose response (AID 743044); type: functional, cell-based
[5] = IGROV1 cell killing – plate reader, dry powder samples, PAX8 inhibitor project, dose response (AID 743043); type: functional, cell-based; conditions: IGROV-1
[6] = Dd2 parasite growth inhibition in erythrocytes – SYBR Green, dry powder samples, set 9, dose response (AID 1159568); type: functional, cell-based
[7] = SNU-C1 cell viability reduction, dose response, CellTiter-Glo luminescence (AID 1117323); type: functional, cell-based
[8] = CellTiter-Glo luminescence survival assay, SW480 colon tumor line, concentration-response curve, half-maximal inhibitory concentration (AID 1117338); type: functional
[9] = HCT116 cell viability decrease, GSK3B pretreatment – CellTiter-Glo, IC50, dose response (AID 1117339); type: functional; conditions: HCT-116
[10] = Reduced DLD-1 viability, concentration-response, CellTiter-Glo luminescence (AID 1117352); type: functional
[11] = cytotoxicity toward Colo320 cells – cell-based, CellTiter-Glo luminescence, IC50, dose response (AID 1117334); type: functional; conditions: COLO 320
[12] = rise of 4N DNA cells, HeLa – IC50, dose response (AID 1117351); type: functional, cell-based
[13] = cytotoxicity toward HT-29 cells – cell-based, CellTiter-Glo luminescence, IC50, dose response (AID 1117330); type: functional
[14] = rise of 2N DNA cells, HeLa – IC50, dose response (AID 1117349); type: functional, cell-based
[15] = IC50 of insulin release inhibition, rat insulinoma INS-1E line, 5 mM glucose, cell-based (AID 1117331); type: functional
[16] = RKO cell viability reduction, dose response, CellTiter-Glo luminescence (AID 1117322); type: functional
[17] = target: T1, Mannose-6-phosphate isomerase (Homo sapiens, UniProt P34949); experiment: MPI inhibition at elevated mannose 6-phosphate – biochemical, fluorescence intensity, high mannose 6-phosphate, primary screen (AID 1220)
T1 sequence (P34949 whole entry): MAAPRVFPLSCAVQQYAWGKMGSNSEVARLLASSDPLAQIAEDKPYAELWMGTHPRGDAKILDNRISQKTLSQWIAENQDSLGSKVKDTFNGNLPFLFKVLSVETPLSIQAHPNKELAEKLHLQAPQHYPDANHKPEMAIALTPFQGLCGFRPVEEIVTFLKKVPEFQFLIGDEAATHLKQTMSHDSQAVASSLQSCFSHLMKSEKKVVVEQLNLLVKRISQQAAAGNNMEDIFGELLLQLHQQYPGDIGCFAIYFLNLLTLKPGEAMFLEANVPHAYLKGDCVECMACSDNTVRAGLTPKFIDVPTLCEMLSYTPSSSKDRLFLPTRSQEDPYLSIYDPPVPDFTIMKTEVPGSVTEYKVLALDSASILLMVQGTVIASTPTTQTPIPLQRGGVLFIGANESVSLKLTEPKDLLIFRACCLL

[18] = viability of PTEN-deleted HCT116 cells – cell-based, HCT116 PTEN knockout, dose response (AID 1047); type: functional;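 also: HCT116 colon tumor cells with PTEN knocked out; cells exposed to compound for 60 hours before readout; potency for loss of cell viability measured by luminescence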
Galanin receptor type 2 = Galanin receptor type 2 (Homo sapiens, UniProt O43603); experiment: Dose Response cell-based high-throughput screening assay to identify agonists of galanin receptor 2 (GALR2). [Related pubchem assays: 864 ]; type: functional
[19] = target: Heat shock protein HSP 90-alpha (Homo sapiens, UniProt P07900); type: functional, organism-based
INS1 = experiment: INS-1E survival protection against cytokine death – cell-based, luminescence, retest, dose response (AID 449756); type: functional; conditions: Rattus norvegicus;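 also: cell death triggered by IL-1 beta plus TNF-alpha plus IFN-gamma mixture; protective hits raise ATP signal compared with cytokine alone wells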
Large T antigen = Large T antigen (Simian virus 40, UniProt P03070); type: functional, Betapolyomavirus macacae;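 also: Confirmatory-stage PubChem screen for compounds that inhibit SV40 T antigen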
[20] = viability of HCT116 lacking mutant beta-catenin – cell-based, human colon tumor, dose response (AID 1045); type: functional;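 also: HCT116 colon tumor cells with beta catenin knocked out; cells exposed to compound for 60 hours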
Estrogen receptor beta [21] = target: T2, Estrogen receptor beta (Homo sapiens, UniProt Q92731);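 also: recombinant ER-beta bound to coactivator SRC1 peptide in presence of estradiol agonist; inhibitors block coactivator peptide binding and lower the FRET signal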
Estrogen receptor beta [22] = target: T2, Estrogen receptor beta; experiment: blockers of SRC-3 recruitment to ERβ – biochemical, ELISA, streptavidin-HRP readout, orthogonal assay, confirmation (AID 1060)
[23] = target: Sphingosine 1-phosphate receptor 2 (Homo sapiens, UniProt O95136); experiment: Dose Response Cell Based Assay for Agonists of the S1P2 Receptor. [Related pubchem assays: 729, 736, 843 ]; type: functional
Estrogen receptor = target: T3, Estrogen receptor (Homo sapiens, UniProt P03372);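 also: potency for inhibiting coactivator peptide recruitment to the receptor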
T3 sequence (P03372 whole entry): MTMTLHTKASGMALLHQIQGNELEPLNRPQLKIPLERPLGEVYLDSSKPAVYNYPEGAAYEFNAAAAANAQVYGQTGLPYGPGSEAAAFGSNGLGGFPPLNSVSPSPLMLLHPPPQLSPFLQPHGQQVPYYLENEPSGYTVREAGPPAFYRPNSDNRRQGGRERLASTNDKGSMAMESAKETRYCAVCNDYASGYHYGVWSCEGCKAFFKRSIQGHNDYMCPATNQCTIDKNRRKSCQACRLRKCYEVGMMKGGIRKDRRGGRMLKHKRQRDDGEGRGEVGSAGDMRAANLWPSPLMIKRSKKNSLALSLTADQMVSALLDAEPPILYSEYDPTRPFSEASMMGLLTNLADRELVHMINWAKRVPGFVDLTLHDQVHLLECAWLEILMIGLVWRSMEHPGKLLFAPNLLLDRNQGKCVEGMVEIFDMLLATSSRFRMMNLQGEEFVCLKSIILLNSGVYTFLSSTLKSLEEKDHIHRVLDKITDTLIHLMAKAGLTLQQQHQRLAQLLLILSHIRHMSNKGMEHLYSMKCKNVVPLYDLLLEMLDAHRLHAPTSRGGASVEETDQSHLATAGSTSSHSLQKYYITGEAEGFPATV

[24] = target: Sphingosine 1-phosphate receptor 1 (Homo sapiens, UniProt P21453); experiment: Fluorescence-based counterscreen assay for S1P4 agonists: Cell-based dose response high throughput screening assay to identify agonists of the Sphingosine 1-Phosphate Receptor 1 (S1P1). [Related pubchem assays (depositor defined):AID1509, AID1523, AID1801, AID463107, AID463118, AID463119, AID463122, AID463123, AID463129, AID463225, AID504400, AID504460]; type: functional
[25] = target: Sphingosine 1-phosphate receptor 4 (Homo sapiens, UniProt O95977); experiment: Fluorescence dose response cell-based high throughput screening assay for agonists of the Sphingosine 1-Phosphate Receptor 4 (S1P4). [Related pubchem assays: 1509 (Primary screen.), 1523 (Confirmation screen in triplicates.)]; type: functional
Chain of Sphingosine 1-phosphate receptor 4 (O95977 whole entry): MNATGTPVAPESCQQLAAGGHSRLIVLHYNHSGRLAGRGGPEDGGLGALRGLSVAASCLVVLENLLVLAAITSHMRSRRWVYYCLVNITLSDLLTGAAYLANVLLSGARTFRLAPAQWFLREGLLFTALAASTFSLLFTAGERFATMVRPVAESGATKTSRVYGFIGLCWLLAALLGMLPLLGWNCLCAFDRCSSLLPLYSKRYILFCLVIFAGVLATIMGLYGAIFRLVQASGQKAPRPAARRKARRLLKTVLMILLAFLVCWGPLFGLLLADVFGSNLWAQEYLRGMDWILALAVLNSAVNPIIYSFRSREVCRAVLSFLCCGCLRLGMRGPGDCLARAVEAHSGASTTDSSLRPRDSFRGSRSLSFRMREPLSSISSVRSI

T2 sequence (Q92731 whole entry): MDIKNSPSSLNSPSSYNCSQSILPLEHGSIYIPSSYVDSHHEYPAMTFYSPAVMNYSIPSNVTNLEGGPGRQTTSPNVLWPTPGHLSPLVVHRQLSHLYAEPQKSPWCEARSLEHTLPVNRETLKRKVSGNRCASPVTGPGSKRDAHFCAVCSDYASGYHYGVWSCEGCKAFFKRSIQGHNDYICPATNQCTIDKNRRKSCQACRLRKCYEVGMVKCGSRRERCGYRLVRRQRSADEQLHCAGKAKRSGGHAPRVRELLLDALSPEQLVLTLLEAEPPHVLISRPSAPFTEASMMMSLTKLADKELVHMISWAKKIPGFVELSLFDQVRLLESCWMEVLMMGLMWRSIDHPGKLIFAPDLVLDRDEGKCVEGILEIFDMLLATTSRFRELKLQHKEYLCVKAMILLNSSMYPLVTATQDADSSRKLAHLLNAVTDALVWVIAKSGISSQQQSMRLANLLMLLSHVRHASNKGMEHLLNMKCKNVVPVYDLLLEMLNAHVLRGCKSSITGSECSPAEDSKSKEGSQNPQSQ
Chain of Galanin receptor type 2 (O43603 whole entry): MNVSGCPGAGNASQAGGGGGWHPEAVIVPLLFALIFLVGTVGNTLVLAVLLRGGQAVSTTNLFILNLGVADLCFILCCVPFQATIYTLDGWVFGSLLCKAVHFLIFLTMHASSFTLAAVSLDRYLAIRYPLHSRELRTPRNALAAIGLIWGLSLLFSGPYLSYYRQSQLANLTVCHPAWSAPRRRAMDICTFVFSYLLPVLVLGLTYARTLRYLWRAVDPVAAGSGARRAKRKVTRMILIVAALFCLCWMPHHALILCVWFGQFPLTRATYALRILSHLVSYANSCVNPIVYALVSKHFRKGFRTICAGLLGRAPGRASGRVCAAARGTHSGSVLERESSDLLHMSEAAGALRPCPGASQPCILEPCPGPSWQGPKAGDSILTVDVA
Chain of Large T antigen (P03070 whole entry): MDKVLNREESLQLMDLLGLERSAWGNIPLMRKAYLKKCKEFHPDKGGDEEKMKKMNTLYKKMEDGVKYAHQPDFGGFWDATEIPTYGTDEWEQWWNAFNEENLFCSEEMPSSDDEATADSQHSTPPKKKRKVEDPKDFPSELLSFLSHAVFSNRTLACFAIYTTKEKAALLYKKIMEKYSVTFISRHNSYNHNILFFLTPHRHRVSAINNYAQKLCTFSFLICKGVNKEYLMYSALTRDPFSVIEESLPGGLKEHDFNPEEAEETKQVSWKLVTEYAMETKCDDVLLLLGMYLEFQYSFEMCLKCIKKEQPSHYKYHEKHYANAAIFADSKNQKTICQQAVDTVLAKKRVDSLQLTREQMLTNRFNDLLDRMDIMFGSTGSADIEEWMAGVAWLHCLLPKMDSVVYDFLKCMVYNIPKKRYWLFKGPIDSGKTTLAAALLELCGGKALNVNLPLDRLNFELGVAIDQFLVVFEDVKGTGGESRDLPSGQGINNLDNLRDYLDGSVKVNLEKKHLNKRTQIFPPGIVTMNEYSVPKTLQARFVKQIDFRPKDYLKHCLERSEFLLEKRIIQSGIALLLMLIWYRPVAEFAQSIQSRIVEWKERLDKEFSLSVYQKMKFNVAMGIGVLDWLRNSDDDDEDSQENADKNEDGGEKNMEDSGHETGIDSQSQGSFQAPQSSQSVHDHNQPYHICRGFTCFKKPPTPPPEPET
Chain of Sphingosine 1-phosphate receptor 2 (O95136 whole entry): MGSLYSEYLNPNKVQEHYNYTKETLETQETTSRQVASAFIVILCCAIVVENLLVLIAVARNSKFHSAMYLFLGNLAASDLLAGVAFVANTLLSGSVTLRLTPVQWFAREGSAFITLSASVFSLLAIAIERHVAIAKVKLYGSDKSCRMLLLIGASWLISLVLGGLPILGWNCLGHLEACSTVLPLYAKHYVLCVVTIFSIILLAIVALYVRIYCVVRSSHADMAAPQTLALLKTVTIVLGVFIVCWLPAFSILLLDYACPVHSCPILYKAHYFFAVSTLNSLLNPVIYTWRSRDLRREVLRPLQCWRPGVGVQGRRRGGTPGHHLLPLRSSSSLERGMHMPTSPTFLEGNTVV
Chain of Mitogen-activated protein kinase 10 (P53779 whole entry): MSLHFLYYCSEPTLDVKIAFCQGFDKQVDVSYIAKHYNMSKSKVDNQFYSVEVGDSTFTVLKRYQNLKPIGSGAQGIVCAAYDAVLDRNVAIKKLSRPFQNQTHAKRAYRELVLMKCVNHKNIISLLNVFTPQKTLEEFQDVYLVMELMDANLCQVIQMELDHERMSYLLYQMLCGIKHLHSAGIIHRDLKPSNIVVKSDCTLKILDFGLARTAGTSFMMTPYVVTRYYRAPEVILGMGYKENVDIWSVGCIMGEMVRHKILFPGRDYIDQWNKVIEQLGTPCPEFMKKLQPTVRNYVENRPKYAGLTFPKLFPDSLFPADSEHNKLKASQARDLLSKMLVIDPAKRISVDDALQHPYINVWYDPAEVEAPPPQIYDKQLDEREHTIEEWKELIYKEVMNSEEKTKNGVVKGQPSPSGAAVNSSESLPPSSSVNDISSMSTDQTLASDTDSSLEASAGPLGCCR
Chain of Sphingosine 1-phosphate receptor 1 (P21453 whole entry): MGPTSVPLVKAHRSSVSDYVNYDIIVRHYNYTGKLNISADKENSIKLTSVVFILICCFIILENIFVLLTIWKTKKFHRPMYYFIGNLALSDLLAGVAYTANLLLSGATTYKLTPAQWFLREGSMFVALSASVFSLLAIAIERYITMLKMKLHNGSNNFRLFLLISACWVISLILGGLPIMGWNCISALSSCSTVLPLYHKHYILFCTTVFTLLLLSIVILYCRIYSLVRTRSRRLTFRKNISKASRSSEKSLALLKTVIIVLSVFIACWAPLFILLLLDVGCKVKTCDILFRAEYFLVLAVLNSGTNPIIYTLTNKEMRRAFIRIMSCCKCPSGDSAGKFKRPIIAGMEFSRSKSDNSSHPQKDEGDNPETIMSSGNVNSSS
Chain of Paired box protein Pax-8 (Q06710 whole entry): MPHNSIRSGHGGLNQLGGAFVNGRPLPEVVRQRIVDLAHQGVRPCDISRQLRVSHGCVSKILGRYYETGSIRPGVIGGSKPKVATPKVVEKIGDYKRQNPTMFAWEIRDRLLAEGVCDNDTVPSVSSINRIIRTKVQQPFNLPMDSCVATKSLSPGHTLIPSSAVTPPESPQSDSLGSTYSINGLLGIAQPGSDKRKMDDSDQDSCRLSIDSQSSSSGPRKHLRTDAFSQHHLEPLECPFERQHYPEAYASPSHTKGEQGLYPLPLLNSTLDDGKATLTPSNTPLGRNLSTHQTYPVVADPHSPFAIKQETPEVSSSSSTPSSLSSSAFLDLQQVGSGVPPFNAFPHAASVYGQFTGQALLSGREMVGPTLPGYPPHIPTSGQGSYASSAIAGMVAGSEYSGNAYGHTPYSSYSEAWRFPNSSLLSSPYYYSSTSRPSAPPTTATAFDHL

SMILES: COc1cc(C(=O)Nc2nccs2)ccc1OCc1c(C)noc1C
- IC50 [1]: > 31 µM (not active)

SMILES: Cc1ccc(C(C)C)c(OCCn2c(CO)nc3ccccc32)c1
- AC50 (cells): 32.2 µM (active)
- AC50 [2]: 38.5 µM (active)
- AC50 [3]: 37.4 µM (active)

SMILES: O=C(Nc1ccccc1F)N1CCCCN2[C@@H](CO)[C@@H](c3ccc(/C=C/c4ccccc4)cc3)[C@@H]2C1
- AC50 (Paired box protein Pax-8): 7.96 µM (active)
- AC50 [4]: 10.6 µM (active)
- AC50 [5]: 29.1 µM (active)
- AC50 [6]: 2.52 µM (active)

SMILES: CC(=O)Oc1ccc(C2(c3ccc(OC(C)=O)cc3)Oc3ccccc3NC2=O)cc1 [BISOXATIN ACETATE]
- IC50 [7]: > 20 µM (inactive)
- IC50 [8]: 9.19 µM (inactive)
- IC50 [9]: 3.26 µM (active)
- IC50 [10]: 19.7 µM (inactive)
- IC50 [11]: > 20 µM (inactive)
- IC50 [12]: > 10 µM (inactive)
- IC50 [13]: > 20 µM (inactive)
- IC50 [14]: > 10 µM (inactive)
- IC50 [15]: > 33.3 µM (inactive)
- IC50 [16]: 9.23 µM (inactive)

SMILES: CC1=C/C(=N\OS(=O)(=O)c2ccccc2)C(C(C)C)=CC1=O
- IC50 [17]: 6.04 µM (active)
- EC50 [18]: 2.93 µM (active)
- EC50 (Galanin receptor type 2): > 55.7 µM (not active)
- AC50 [19]: 0.751 µM (active)
- AC50 (INS1): 3.88 µM (active)
- IC50 (Large T antigen): 48.2 µM (active)
- EC50 [20]: 3.13 µM (active)

SMILES: C=CCn1c(=O)c(C#N)cc2c(=O)n3ccccc3nc21
- IC50 (Estrogen receptor beta [21]): 21.1 µM (active)
- IC50 (Estrogen receptor beta [22]): < 0.023 µM (not active)
- EC50 [23]: 64.4 µM (not active)
- IC50 (Estrogen receptor): 44.7 µM (not active)
- EC50 [24]: 24.6 µM (inactive)
- EC50 [25]: 6.15 µM (active)
